In patent US10792289B2 (Horizon Orphan LLC, priority 2009, dated 2020):
Like-named read-outs stand apart in the source and are kept apart here.

Tested on: P. aeruginosa isolates
Assay: Phase 2 study: MIC of P. aeruginosa isolates to levofloxacin
Format: cell-based
Conditions: Pseudomonas aeruginosa
Experimental: Efficacy was evaluated by microbiologic assessment of sputum samples, time to need for anti-pseudomonal antimicrobials, the Cystic Fibrosis Questionaire-Revised (CFQ-R), and pulmonary function tests. […] Pair-wise comparisons between all the treatment arms were conducted as secondary analyses.

**Q.** `C[C@H]1COc2c(N3CCN(C)CC3)c(F)cc3c(=O)c(C(=O)O)cn1c23` [Levofloxacin, levofloxacin] was tested. Which MIC50 (168 h, MITT, 240 mg QD, Day 7, read-out: MIC50 (all organisms)) did it give?
**A.** 4 µg/mL

**Q.** What about the MIC90 (168 h, MITT, 240 mg QD, Day 7, read-out: MIC90 (all organisms)) of the same compound?
**A.** 16 µg/mL

**Q.** What about the MIC50 (168 h, MITT, combined 240 mg QD and BID, Day 7, read-out: Highest MIC, MIC50) of the same compound?
**A.** 4 µg/mL

**Q.** What about the MIC90 (168 h, MITT, combined 240 mg QD and BID, Day 7, read-out: Highest MIC, MIC90) of the same compound?
**A.** 16 µg/mL

**Q.** What about the MIC50 (168 h, MITT, combined 240 mg QD and BID, Day 7, read-out: MIC50 (all organisms)) of the same compound?
**A.** 4 µg/mL

**Q.** And the MIC90 (168 h, MITT, combined 240 mg QD and BID, Day 7, read-out: MIC90 (all organisms))?
**A.** 16 µg/mL

**Q.** And the MIC50 (168 h, Table 14, EE, 120 mg QD, Day 7, read-out: MIC50 (all organisms))?
**A.** 8 µg/mL

**Q.** And the MIC90 (168 h, Table 14, EE, 120 mg QD, Day 7, read-out: MIC90 (all organisms))?
**A.** 32 µg/mL

**Q.** What about the MIC50 (168 h, Table 14, EE, 240 mg BID, Day 7, read-out: MIC50 (all organisms)) of the same compound?
**A.** 4 µg/mL

**Q.** What about the MIC90 (168 h, Table 14, EE, 240 mg BID, Day 7, read-out: MIC90 (all organisms)) of the same compound?
**A.** 32 µg/mL

**Q.** What about the MIC50 (168 h, Table 14, EE, 240 mg QD, Day 7, read-out: MIC50 (all organisms)) of the same compound?
**A.** 4 µg/mL

**Q.** And the MIC90 (168 h, Table 14, EE, 240 mg QD, Day 7, read-out: MIC90 (all organisms))?
**A.** 16 µg/mL

**Q.** And the MIC90 (168 h, Table 14, EE, combined 240 mg QD and BID, Day 7, read-out: MIC90 (all organisms))?
**A.** 32 µg/mL

**Q.** What about the MIC (168 h, read-out: Highest MIC to levofloxacin, mean (SD), MITT, 120 mg QD, Day 7) of the same compound?
**A.** 15.2 µg/mL

**Q.** What about the MIC (168 h, read-out: Highest MIC to levofloxacin, mean (SD), MITT, 240 mg BID, Day 7) of the same compound?
**A.** 13 µg/mL

**Q.** And the MIC (168 h, read-out: Highest MIC to levofloxacin, mean (SD), MITT, 240 mg QD, Day 7)?
**A.** 10.5 µg/mL

**Q.** What about the MIC (168 h, read-out: Highest MIC to levofloxacin, mean (SD), MITT, combined 240 mg QD and BID, Day 7) of the same compound?
**A.** 11.8 µg/mL

**Q.** And the MIC (168 h, read-out: MIC to levofloxacin (all organisms), mean (SD), EE, 120 mg QD, Day 7)?
**A.** 9.9 µg/mL

**Q.** And the MIC (168 h, read-out: MIC to levofloxacin (all organisms), mean (SD), EE, 240 mg BID, Day 7)?
**A.** 8.8 µg/mL

**Q.** What about the MIC (168 h, read-out: MIC to levofloxacin (all organisms), mean (SD), EE, 240 mg QD, Day 7) of the same compound?
**A.** 6.8 µg/mL

**Q.** And the MIC (168 h, read-out: MIC to levofloxacin (all organisms), mean (SD), EE, combined 240 mg QD and BID, Day 7)?
**A.** 7.8 µg/mL

**Q.** What about the MIC (168 h, read-out: MIC to levofloxacin (all organisms), mean (SD), MITT, 120 mg QD, Day 7) of the same compound?
**A.** 9.6 µg/mL

**Q.** What about the MIC (168 h, read-out: MIC to levofloxacin (all organisms), mean (SD), MITT, 240 mg BID, Day 7) of the same compound?
**A.** 8.6 µg/mL

**Q.** And the MIC (168 h, read-out: MIC to levofloxacin (all organisms), mean (SD), MITT, 240 mg QD, Day 7)?
**A.** 6.7 µg/mL

**Q.** And the MIC (168 h, read-out: MIC to levofloxacin (all organisms), mean (SD), MITT, combined 240 mg QD and BID, Day 7)?
**A.** 7.6 µg/mL

**Q.** What about the MIC (168 h, read-out: MIC to levofloxacin (all organisms), mean (SD), Table 14, EE, 120 mg QD, Day 7) of the same compound?
**A.** 15.7 µg/mL

**Q.** What about the MIC (168 h, read-out: MIC to levofloxacin (all organisms), mean (SD), Table 14, EE, 240 mg BID, Day 7) of the same compound?
**A.** 13.1 µg/mL

**Q.** And the MIC (168 h, read-out: MIC to levofloxacin (all organisms), mean (SD), Table 14, EE, 240 mg QD, Day 7)?
**A.** 10.9 µg/mL

**Q.** What about the MIC (168 h, read-out: MIC to levofloxacin (all organisms), mean (SD), Table 14, EE, combined 240 mg QD and BID, Day 7) of the same compound?
**A.** 11.9 µg/mL

**Q.** And the MIC50 (336 h, EE, 120 mg QD, Day 14, read-out: MIC50 (all organisms))?
**A.** 4 µg/mL

**Q.** What about the MIC90 (336 h, EE, 120 mg QD, Day 14, read-out: MIC90 (all organisms)) of the same compound?
**A.** 37 µg/mL

**Q.** And the MIC50 (336 h, EE, 240 mg BID, Day 14, read-out: MIC50 (all organisms))?
**A.** 4 µg/mL

**Q.** What about the MIC90 (336 h, EE, 240 mg BID, Day 14, read-out: MIC90 (all organisms)) of the same compound?
**A.** 16 µg/mL

**Q.** What about the MIC50 (336 h, EE, 240 mg QD, Day 14, read-out: MIC50 (all organisms)) of the same compound?
**A.** 4 µg/mL

**Q.** And the MIC90 (336 h, EE, 240 mg QD, Day 14, read-out: MIC90 (all organisms))?
**A.** 16 µg/mL

**Q.** And the MIC50 (336 h, EE, combined 240 mg QD and BID, Day 14, read-out: MIC50 (all organisms))?
**A.** 4 µg/mL

**Q.** What about the MIC90 (336 h, EE, combined 240 mg QD and BID, Day 14, read-out: MIC90 (all organisms)) of the same compound?
**A.** 16 µg/mL

**Q.** What about the MIC50 (336 h, MITT, 120 mg QD, Day 14, read-out: Highest MIC, MIC50) of the same compound?
**A.** 8 µg/mL

**Q.** And the MIC90 (336 h, MITT, 120 mg QD, Day 14, read-out: Highest MIC, MIC90)?
**A.** 32 µg/mL

**Q.** What about the MIC50 (336 h, MITT, 120 mg QD, Day 14, read-out: MIC50 (all organisms)) of the same compound?
**A.** 6 µg/mL

**Q.** And the MIC90 (336 h, MITT, 120 mg QD, Day 14, read-out: MIC90 (all organisms))?
**A.** 32 µg/mL

**Q.** And the MIC50 (336 h, MITT, 240 mg BID, Day 14, read-out: Highest MIC, MIC50)?
**A.** 6 µg/mL

**Q.** And the MIC90 (336 h, MITT, 240 mg BID, Day 14, read-out: Highest MIC, MIC90)?
**A.** 32 µg/mL

**Q.** And the MIC50 (336 h, MITT, 240 mg BID, Day 14, read-out: MIC50 (all organisms))?
**A.** 4 µg/mL

**Q.** And the MIC90 (336 h, MITT, 240 mg BID, Day 14, read-out: MIC90 (all organisms))?
**A.** 16 µg/mL

**Q.** And the MIC50 (336 h, MITT, 240 mg QD, Day 14, read-out: Highest MIC, MIC50)?
**A.** 8 µg/mL

**Q.** And the MIC90 (336 h, MITT, 240 mg QD, Day 14, read-out: Highest MIC, MIC90)?
**A.** 16 µg/mL

**Q.** What about the MIC50 (336 h, MITT, 240 mg QD, Day 14, read-out: MIC50 (all organisms)) of the same compound?
**A.** 4 µg/mL

**Q.** What about the MIC90 (336 h, MITT, 240 mg QD, Day 14, read-out: MIC90 (all organisms)) of the same compound?
**A.** 16 µg/mL

**Q.** And the MIC50 (336 h, MITT, combined 240 mg QD and BID, Day 14, read-out: Highest MIC, MIC50)?
**A.** 8 µg/mL

**Q.** What about the MIC90 (336 h, MITT, combined 240 mg QD and BID, Day 14, read-out: Highest MIC, MIC90) of the same compound?
**A.** 32 µg/mL
